The values that follow come from US11524968B2, “Heterocyclic compound as a protein kinase inhibitor” (HK inno.N Corporation, priority 2017, dated 2022).

This test has as its target JAK1 (Homo sapiens (Human), UniProt P23458). Briefly: Analysis of JAK1 activity inhibition ability (ADP-Glo Kinase Assay). Type of test: biochemical. Particulars: JAK1 enzyme, ADP-Glo luminescence, ATP 250 uM, IRS-itide substrate, 30° C. 40 minutes; read-out: IC50. In short, it runs like this: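 JAK1 enzyme, IRS-itide substrate (40 ng/mL) and 250 uM ATP, both as prepared in kinase buffer (Tris-HCl pH 7.5, MgCl2, BSA, DTT), reacted with compound 40 min at 30 °C. ADP formed was detected by ADP-Glo luminescence; IC50 is the concentration giving 50% inhibition versus control.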
(In general: In ADP-Glo the light output rises with the ADP produced.)

JAK1, sequence (P23458 whole entry): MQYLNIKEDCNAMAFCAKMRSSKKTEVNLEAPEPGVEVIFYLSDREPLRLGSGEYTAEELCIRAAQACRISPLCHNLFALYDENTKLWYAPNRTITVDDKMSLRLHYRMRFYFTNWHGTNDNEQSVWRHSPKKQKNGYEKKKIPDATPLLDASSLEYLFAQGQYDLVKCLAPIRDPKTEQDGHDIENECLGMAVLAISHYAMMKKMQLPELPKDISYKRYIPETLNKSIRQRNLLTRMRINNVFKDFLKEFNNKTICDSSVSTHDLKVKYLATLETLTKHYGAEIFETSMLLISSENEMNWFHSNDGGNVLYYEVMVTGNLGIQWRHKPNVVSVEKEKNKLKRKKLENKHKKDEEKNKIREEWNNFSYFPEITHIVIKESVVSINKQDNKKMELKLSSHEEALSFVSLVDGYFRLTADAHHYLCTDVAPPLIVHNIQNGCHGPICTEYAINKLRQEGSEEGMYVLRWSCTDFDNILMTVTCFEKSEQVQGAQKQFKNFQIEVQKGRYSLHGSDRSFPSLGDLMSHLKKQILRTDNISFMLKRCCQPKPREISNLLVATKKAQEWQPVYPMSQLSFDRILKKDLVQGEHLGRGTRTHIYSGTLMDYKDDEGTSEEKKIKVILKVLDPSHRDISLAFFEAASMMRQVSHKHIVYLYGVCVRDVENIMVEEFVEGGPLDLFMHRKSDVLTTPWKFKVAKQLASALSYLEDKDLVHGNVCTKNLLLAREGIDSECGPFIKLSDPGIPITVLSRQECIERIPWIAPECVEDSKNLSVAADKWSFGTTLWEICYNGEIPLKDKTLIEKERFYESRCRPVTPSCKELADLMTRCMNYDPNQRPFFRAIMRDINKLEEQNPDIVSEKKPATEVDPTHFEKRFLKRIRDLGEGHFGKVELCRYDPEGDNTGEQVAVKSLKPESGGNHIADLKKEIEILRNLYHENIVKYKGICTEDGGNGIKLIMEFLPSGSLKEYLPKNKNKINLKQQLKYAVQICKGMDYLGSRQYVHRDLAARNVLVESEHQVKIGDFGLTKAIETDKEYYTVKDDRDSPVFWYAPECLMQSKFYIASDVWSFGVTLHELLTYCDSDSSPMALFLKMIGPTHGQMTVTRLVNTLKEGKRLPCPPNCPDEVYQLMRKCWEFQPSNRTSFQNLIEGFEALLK

A word on the IC50: it is the concentration that inhibits the measured activity by half. For the compound `CC1CN(C(=O)c2ccnc(C(F)(F)F)c2)CC=C1c1cc(NC(=O)C2CC2)nc2[nH]ccc12` (stereo not shown) [Example 384, N-(4-(3-methyl-1-(2-(trifluoromethyl)isonicotinoyl)-1,2,3,6-tetrahydropyridin-4-yl)-1H-pyrrolo[2,3-b]pyridin-6-yl)cyclopropanecarboxamide], the half-inhibitory concentration (IC50) lay within 0.02 to 0.2 µM. On to `CC1(C)CC(c2cc(NC(=O)C3CC3)nc3[nH]ccc23)=CCN1C(=O)c1ccnc(F)c1` [Example 385, N-(4-(1-(2-fluoroisonicotinoyl)-2,2-dimethyl-1,2,3,6-tetrahydropyridin-4-yl)-1H-pyrrolo[2,3-b]pyridin-6-yl)cyclopropanecarboxamide], for which the IC50 is < 0.02 µM. For `CC1(C)CC(c2cc(NC(=O)C3CC3)nc3[nH]ccc23)=CCN1C(=O)c1ccnc(Cl)c1` [Example 386, N-(4-(1-(2-chloroisonicotinoyl)-2,2-dimethyl-1,2,3,6-tetrahydropyridin-4-yl)-1H-pyrrolo[2,3-b]pyridin-6-yl)cyclopropanecarboxamide] the value was 0.02 to 0.2 µM. `CC1(C)CC(c2cc(NC(=O)C3CC3)nc3[nH]ccc23)=CCN1C(=O)CC#N` [Example 387, N-(4-(1-(2-cyanoacetyl)-2,2-dimethyl-1,2,3,6-tetrahydropyridin-4-yl)-1H-pyrrolo[2,3-b]pyridin-6-yl)cyclopropanecarboxamide]: the IC50 was 0.02 to 0.2 µM.

Consider `C[C@@H]1C=C(c2cc(NC(=O)C3CC3)nc3[nH]ccc23)CCN1C(=O)CC#N` [Example 388, (R)—N-(4-(1-(2-cyanoacetyl)-6-methyl-1,2,3,6-tetrahydropyridin-4-yl)-1H-pyrrolo[2,3-b]pyridin-6-yl)cyclopropanecarboxamide], for which the concentration for half-maximal inhibition (IC50) was < 0.02 µM. Consider `C[C@@H]1CC(c2cc(NC(=O)C3CC3)nc3[nH]ccc23)=CCN1C(=O)CC#N` [Example 389, (R)—N-(4-(1-(2-cyanoacetyl)-2-methyl-1,2,3,6-tetrahydropyridin-4-yl)-1H-pyrrolo[2,3-b]pyridin-6-yl)cyclopropanecarboxamide], for which the half-maximal inhibitory concentration (IC50) was < 0.02 µM. `C[C@H]1C=C(c2cc(NC(=O)C3CC3)nc3[nH]ccc23)CCN1C(=O)CC#N` [Example 390, (S)—N-(4-(1-(2-cyanoacetyl)-6-methyl-1,2,3,6-tetrahydropyridin-4-yl)-1H-pyrrolo[2,3-b]pyridin-6-yl)cyclopropanecarboxamide]: the IC50 was < 0.02 µM. For `C[C@H]1CC(c2cc(NC(=O)C3CC3)nc3[nH]ccc23)=CCN1C(=O)CC#N` [Example 391, (S)—N-(4-(1-(2-cyanoacetyl)-2-methyl-1,2,3,6-tetrahydropyridin-4-yl)-1H-pyrrolo[2,3-b]pyridin-6-yl)cyclopropanecarboxamide] the value was 0.02 to 0.2 µM; for `CC1CN(C(=O)c2ccnc(C#N)c2)CC=C1c1cc(NC(=O)C2CC2)nc2[nH]ccc12` (stereo not shown) [Example 392, N-(4-(1-(2-cyanoisonicotinoyl)-3-methyl-1,2,3,6-tetrahydropyridin-4-yl)-1H-pyrrolo[2,3-b]pyridin-6-yl)cyclopropanecarboxamide], 0.02 to 0.2 µM; for `N#CCC(=O)N1CC=C(c2cc(NC(=O)C3CC3)nc3[nH]ccc23)CC1C(F)(F)F` (stereo not shown) [Example 393, N-(4-(1-(2-cyanoacetyl)-2-(trifluoromethyl)-1,2,3,6-tetrahydropyridin-4-yl)-1H-pyrrolo[2,3-b]pyridin-6-yl)cyclopropanecarboxamide], < 0.02 µM.

Consider `N#CCC(=O)N1C2C=C(c3cc(NC(=O)C4CC4)nc4[nH]ccc34)CC1CCC2` (stereo not shown) [Example 394, N-(4-(9-(2-cyanoacetyl)-9-azabicyclo[3.3.1]non-2-en-3-yl)-1H-pyrrolo[2,3-b]pyridin-6-yl)cyclopropanecarboxamide], for which the half-inhibitory concentration (IC50) was < 0.02 µM.

`C[C@@H]1CN(C(=O)c2ccnc(F)c2)CC=C1c1cc(NC(=O)C2CC2)nc2[nH]ccc12` [Example 395, (S)—N-(4-(1-(2-fluoroisonicotinoyl)-3-methyl-1,2,3,6-tetrahydropyridin-4-yl)-1H-pyrrolo[2,3-b]pyridin-6-yl)cyclopropanecarboxamide]: the IC50 was < 0.02 µM. The figure for `C[C@@H]1CN(C(=O)c2ccnc(F)c2F)CC=C1c1cc(NC(=O)C2CC2)nc2[nH]ccc12` [Example 396, (S)—N-(4-(1-(2,3-difluoroisonicotinoyl)-3-methyl-1,2,3,6-tetrahydropyridin-4-yl)-1H-pyrrolo[2,3-b]pyridin-6-yl)cyclopropanecarboxamide] is < 0.02 µM; for `C[C@@H]1CN(C(=O)c2cccc(Br)c2)CC=C1c1cc(NC(=O)C2CC2)nc2[nH]ccc12` [Example 397, (S)—N-(4-(1-(3-bromobenzoyl)-3-methyl-1,2,3,6-tetrahydropyridin-4-yl)-1H-pyrrolo[2,3-b]pyridin-6-yl)cyclopropanecarboxamide] it is < 0.02 µM.

Turning to `C[C@@H]1CN(C(=O)c2ccc([N+](=O)[O-])cc2)CC=C1c1cc(NC(=O)C2CC2)nc2[nH]ccc12` [Example 398, (S)—N-(4-(3-methyl-1-(4-nitrobenzoyl)-1,2,3,6-tetrahydropyridin-4-yl)-1H-pyrrolo[2,3-b]pyridin-6-yl)cyclopropanecarboxamide], the IC50 is < 0.02 µM. The figure for `C[C@@H]1CN(C(=O)c2ccnc(Cl)c2)CC=C1c1cc(NC(=O)C2CC2)nc2[nH]ccc12` [Example 399, (S)—N-(4-(1-(2-chloroisonicotinoyl)-3-methyl-1,2,3,6-tetrahydropyridin-4-yl)-1H-pyrrolo[2,3-b]pyridin-6-yl)cyclopropanecarboxamide] is < 0.02 µM; for `C[C@@H]1CN(C(=O)c2ccc(Cl)nc2)CC=C1c1cc(NC(=O)C2CC2)nc2[nH]ccc12` [Example 400, (S)—N-(4-(1-(6-chloronicotinoyl)-3-methyl-1,2,3,6-tetrahydropyridin-4-yl)-1H-pyrrolo[2,3-b]pyridin-6-yl)cyclopropanecarboxamide] it is < 0.02 µM. For the compound `C[C@@H]1CN(C(=O)CCl)CC=C1c1cc(NC(=O)C2CC2)nc2[nH]ccc12` [Example 401, (S)—N-(4-(1-(2-chloroacetyl)-3-methyl-1,2,3,6-tetrahydropyridin-4-yl)-1H-pyrrolo[2,3-b]pyridin-6-yl)cyclopropanecarboxamide], the IC50 was 0.02 to 0.2 µM.

On to `C[C@@H]1CN(C(=O)c2ccncc2F)CC=C1c1cc(NC(=O)C2CC2)nc2[nH]ccc12` [Example 402, (S)—N-(4-(1-(3-fluoroisonicotinoyl)-3-methyl-1,2,3,6-tetrahydropyridin-4-yl)-1H-pyrrolo[2,3-b]pyridin-6-yl)cyclopropanecarboxamide], for which the half-maximal inhibitory concentration (IC50) is < 0.02 µM.

In the case of `C[C@@H]1CN(C(=O)C(C#N)=Cc2cccs2)CC=C1c1cc(NC(=O)C2CC2)nc2[nH]ccc12` [Example 403, (S)—N-(4-(1-(2-cyano-3-(thiophen-2-yl)acryloyl)-3-methyl-1,2,3,6-tetrahydropyridin-4-yl)-1H-pyrrolo[2,3-b]pyridin-6-yl)cyclopropanecarboxamide], the half-maximal inhibitory concentration (IC50) was 0.02 to 0.2 µM. For `C[C@@H]1CN(C(=O)C(=Cc2ccccc2)CC#N)CC=C1c1cc(NC(=O)C2CC2)nc2[nH]ccc12` [Example 404, (S)—N-(4-(1-(2-(cyanomethyl)-3-phenylacryloyl)-3-methyl-1,2,3,6-tetrahydropyridin-4-yl)-1H-pyrrolo[2,3-b]pyridin-6-yl)cyclopropanecarboxamide] the value was 0.02 to 0.2 µM; for `C[C@@H]1CN(C(=O)c2cccn(C)c2=O)CC=C1c1cc(NC(=O)C2CC2)nc2[nH]ccc12` [Example 405, (S)—N-(4-(3-methyl-1-(1-methyl-2-oxo-1,2-dihydropyridine-3-carbonyl)-1,2,3,6-tetrahydropyridin-4-yl)-1H-pyrrolo[2,3-b]pyridin-6-yl)cyclopropanecarboxamide], > 0.2 µM. Regarding `C[C@@H]1CN(C(=O)CC2(C#N)CCCCC2)CC=C1c1cc(NC(=O)C2CC2)nc2[nH]ccc12` [Example 406, (S)—N-(4-(1-(2-(1-cyanocyclohexyl)acetyl)-3-methyl-1,2,3,6-tetrahydropyridin-4-yl)-1H-pyrrolo[2,3-b]pyridin-6-yl)cyclopropanecarboxamide], the concentration for half-maximal inhibition (IC50) was < 0.02 µM. For `C[C@@H]1CN(C(=O)C2(C#N)CCOCC2)CC=C1c1cc(NC(=O)C2CC2)nc2[nH]ccc12` [Example 407, (S)—N-(4-(1-(4-cyanotetrahydro-2H-pyran-4-carbonyl)-3-methyl-1,2,3,6-tetrahydropyridin-4-yl)-1H-pyrrolo[2,3-b]pyridin-6-yl)cyclopropanecarboxamide] the value was 0.02 to 0.2 µM; for `CC(C)=C(C#N)C(=O)N1CC=C(c2cc(NC(=O)C3CC3)nc3[nH]ccc23)[C@H](C)C1` [Example 408, (S)—N-(4-(1-(2-cyano-3-methylbut-2-enoyl)-3-methyl-1,2,3,6-tetrahydropyridin-4-yl)-1H-pyrrolo[2,3-b]pyridin-6-yl)cyclopropanecarboxamide], 0.02 to 0.2 µM; for `CCC1C=C(c2cc(NC(=O)C3CC3)nc3[nH]ccc23)CC(CC)N1C(=O)CC#N` (stereo not shown) [Example 409, N-(4-(1-(2-cyanoacetyl)-2,6-diethyl-1,2,3,6-tetrahydropyridin-4-yl)-1H-pyrrolo[2,3-b]pyridin-6-yl)cyclopropanecarboxamide], < 0.02 µM.

With `CC(C)C1CC(c2cc(NC(=O)C3CC3)nc3[nH]ccc23)=CCN1C(=O)CC#N` (stereo not shown) [Example 410, N-(4-(1-(2-cyanoacetyl)-2-isopropyl-1,2,3,6-tetrahydropyridin-4-yl)-1H-pyrrolo[2,3-b]pyridin-6-yl)cyclopropanecarboxamide], the IC50 was < 0.02 µM.

With `CCCC1C=C(c2cc(NC(=O)C3CC3)nc3[nH]ccc23)CCN1C(=O)CC#N` (stereo not shown) [Example 411, N-(4-(1-(2-cyanoacetyl)-6-propyl-1,2,3,6-tetrahydropyridin-4-yl)-1H-pyrrolo[2,3-b]pyridin-6-yl)cyclopropanecarboxamide], the IC50 is 0.02 to 0.2 µM.
